Test results as given in patent publication US20070128217A1 (priority 2003, published 2007).

Experiments:
[1] = system: antibodies in sera from SARS patients (sera 1a, 1b, 2, 6, 37, 62, London, SARS-yellow, SARS-green); assay type: binding, human; design: Binding of serum 6 to linear peptides of protein X1 of SARS-CoV Urbani / Binding of serum 37 to linear peptides of protein X1 of SARS-CoV Urbani / Binding of serum 6 to looped/cyclic peptide (PEPSCAN-ELISA) / Binding of serum 37 to looped/cyclic peptide (PEPSCAN-ELISA) / Binding of serum 37 to looped/cyclic peptides of protein X1 of SARS-CoV Urbani / Binding of serum 6 to linear peptides of protein X2 / Binding of serum 37 to linear peptides of protein X2 / Binding of serum 37 to looped/cyclic peptides of protein X2 of SARS-CoV Urbani / Binding of serum 6 to linear peptides of protein M of SARS-CoV Urbani / Binding of serum 37 to linear peptides of protein M of SARS-CoV Urbani / Binding of serum 6 to looped/cyclic peptides of protein M of SARS-CoV Urbani / Binding of serum 37 to looped/cyclic peptides of protein M of SARS-CoV Urbani / Binding of serum 6 to linear peptides of protein X3 of SARS-CoV Urbani / Binding of serum 37 to linear peptides of protein X3 of SARS-CoV Urbani / Binding of serum 37 to looped/cyclic peptides of protein X3 of SARS-CoV Urbani / Binding of serum 6 to linear peptides of protein X4 of SARS-CoV Urbani / Binding of serum 37 to linear peptides of protein X4 of SARS-CoV Urbani / Binding of serum 37 to looped/cyclic peptides of protein X4 of SARS-CoV Urbani / Binding of serum 6 to linear peptides of protein X5 of SARS-CoV Urbani / Binding of serum 37 to linear peptides of protein X5 of SARS-CoV Urbani / Binding of serum 37 to looped/cyclic peptides of protein X5 of SARS-CoV Urbani / Binding of serum 6 to linear peptides of protein N of SARS-CoV Urbani / Binding of serum 37 to linear peptides of protein N of SARS-CoV Urbani / Binding of serum 6 to linear peptide (PEPSCAN-ELISA) / Binding of serum 1a to looped/cyclic peptides of protein N of SARS-CoV Urbani / Binding of serum 1b to looped/cyclic peptides of protein N of SARS-CoV Urbani / Binding of serum 2 to looped/cyclic peptides of protein N of SARS-CoV Urbani / Binding of serum 6 to looped/cyclic peptides of protein N of SARS-CoV Urbani / Binding of serum 37 to looped/cyclic peptides of protein N of SARS-CoV Urbani / Binding of serum 62 to looped/cyclic peptides of protein N of SARS-CoV Urbani / Binding of serum London to looped/cyclic peptides of protein N of SARS-CoV Urbani / Binding of serum SARS-green to looped/cyclic peptides of protein N of SARS-CoV Urbani: unit not given here
[2] = system: control sera (pooled serum of ten healthy LUMC hospital workers; commercial negative donor pooled serum from the Dutch bloodbank); assay type: binding, human; design: Binding of Control serum LUMC to linear peptides / Binding of Control serum Blood-bank to linear peptides / Binding of Control serum LUMC to looped peptides / Binding of Control Serum Blood-Bank to Looped peptides / Binding of Control serum LUMC to linear peptides of the protein M of SARS-CoV Urbani / Binding of Control serum Blood-bank to linear peptides of the protein M of SARS-CoV Urbani / Binding of Control serum LUMC to looped peptides of the protein M of SARS-CoV Urbani / Binding of Control Serum Blood-Bank to Looped peptides of the protein M of SARS-CoV Urbani: unit not given here
[3] = system: rabbit serum obtained by immunizing a rabbit with the SARS-CoV strain Frankfurt 1; assay type: binding; design: Binding of a rabbit serum to linear peptides / Binding of a rabbit serum to looped peptides / Rabbit serum linear peptides / Rabbit serum looped peptides / Binding of a rabbit serum to linear peptides of protein N of SARS-CoV Urbani (Rabbit serum linear peptides) / Binding of a rabbit serum to looped/cyclic peptides of protein N of SARS-CoV Urbani (Rabbit serum looped peptides): unit not given here
[4] = system: recombinant human anti-SARS-CoV antibody 03-018; assay type: binding; design: Binding of antibody 03-018 to linear peptides of the N protein of SARS-CoV Urbani / Binding of antibody 03-018 to looped/cyclic peptides of the N protein of SARS-CoV Urbani: unit not given here

Sequence | Binding of serum 1a to looped/cyclic peptides of protein N of SARS-CoV Urbani [1] | Binding of serum 1b to looped/cyclic peptides of protein N of SARS-CoV Urbani [1] | Binding of serum 2 to looped/cyclic peptides of protein N of SARS-CoV Urbani [1] | Binding of serum 6 to looped/cyclic peptides of protein N of SARS-CoV Urbani [1] | Binding of serum 37 to looped/cyclic peptides of protein N of SARS-CoV Urbani [1] | Binding of serum 62 to looped/cyclic peptides of protein N of SARS-CoV Urbani [1] | Binding of serum London to looped/cyclic peptides of protein N of SARS-CoV Urbani [1] | Binding of serum SARS-green to looped/cyclic peptides of protein N of SARS-CoV Urbani [1] | Binding of serum SARS-yellow to looped/cyclic peptides of protein N of SARS-CoV Urbani [1] | Binding of Control Serum Blood-Bank to Looped peptides [2] | Binding of Control serum Blood-bank to linear peptides [2] | Binding of Control serum LUMC to linear peptides [2] | Binding of Control serum LUMC to looped peptides [2] | Binding of a rabbit serum to linear peptides of protein N of SARS-CoV Urbani (Rabbit serum linear peptides) [3] | Binding of a rabbit serum to looped/cyclic peptides of protein N of SARS-CoV Urbani (Rabbit serum looped peptides) [3] | Binding of antibody 03-018 to linear peptides of the N protein of SARS-CoV Urbani [4] | Binding of antibody 03-018 to looped/cyclic peptides of the N protein of SARS-CoV Urbani [4] | other results
QGNFGDQDLIRQGTD | 0.4 | 0.3 | 0.3 | 0.2 | 0.6 | 0.5 | 0.4 | 0.7 | 0.6 | 0.5 | 0.6 | 0.7 | 0.6 | 0.2 | 0.4 | 0.1 | 0.2 | Binding of serum 1a to linear peptide (PEPSCAN-ELISA) [1]: 0.3; Binding of serum 1b to linear peptide (PEPSCAN-ELISA) [1]: 0.2; Binding of serum 2 to linear peptide (PEPSCAN-ELISA) [1]: 0.2; Binding of serum 6 to linear peptide (PEPSCAN-ELISA) [1]: 0.2; Binding of serum 37 to linear peptide (PEPSCAN-ELISA) [1]: 0.8; Binding of serum 62 to linear peptide (PEPSCAN-ELISA) [1]: 0.8; Binding of serum London to linear peptide (PEPSCAN-ELISA) [1]: 0.5; Binding of serum SARS-green to linear peptide (PEPSCAN-ELISA) [1]: 0.6; Binding of serum SARS-yellow to linear peptide (PEPSCAN-ELISA) [1]: 0.8
QGQTVTKKSAAEASK | 0.2 | 0.1 | 0.2 | 0.1 | 0.4 | 0.2 | 0.3 | 0.1 | 0.2 | 0.4 | 1.1 | 1.0 | 0.4 | 0.2 | 0.2 | 0.1 | 0.2 | Recognition of the peptide by sera of SARS-CoV infected individuals, and form (linear, looped/cyclic) in which it is recognized [1]: recognized in linear form
